Reference: ChEMBL document CHEMBL1201861, “Genomics of Drug Sensitity in Cancer screening data, Wellcome Trust Sanger Institute”

Key:
Experiment in all cases: cells
[1] = system: TE-5; type: functional, cell-based, Homo sapiens; details: Homo sapiens, TE-5;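 note: inhibition of cell growth, read out by a cell viability assay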
Description: SANGER: Inhibition of human TE-5 cell growth in a cell viability assay.

[2] = system: TE-9; type: functional, cell-based, Homo sapiens; details: Homo sapiens, TE-9;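 note: cell growth inhibition, measured with a cell viability readout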
Description: SANGER: Inhibition of human TE-9 cell growth in a cell viability assay.

[3] = system: HCE-4; type: functional, cell-based, Homo sapiens; details: Homo sapiens, HCE-4;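 note: cell viability assay measuring inhibition of growth in the human HCE-4 cell line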
Description: SANGER: Inhibition of human HCE-4 cell growth in a cell viability assay.

[4] = system: ES8; type: functional, cell-based, Homo sapiens; details: Homo sapiens, ES8;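 note: growth inhibition of human ES8 cells, read out with a cell viability assay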
Description: SANGER: Inhibition of human ES8 cell growth in a cell viability assay.

[5] = system: EW-1; type: functional, cell-based, Homo sapiens; details: Homo sapiens, EW-1;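 note: growth inhibition of the human EW-1 cell line, read out by a cell viability assay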
Description: SANGER: Inhibition of human EW-1 cell growth in a cell viability assay.

[6] = system: 8-MG-BA; type: functional, cell-based, Homo sapiens; details: Homo sapiens, 8-MG-BA;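 note: growth inhibition of 8-MG-BA cells, read out with a cell viability assay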
Description: SANGER: Inhibition of human 8-MG-BA cell growth in a cell viability assay.

[7] = system: ML-2; type: functional, cell-based, Homo sapiens; details: Homo sapiens, ML-2;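 note: growth inhibition of ML-2 cells, measured with a cell viability readout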
Description: SANGER: Inhibition of human ML-2 cell growth in a cell viability assay.

[8] = system: LS-123; type: functional, cell-based, Homo sapiens; details: Homo sapiens, LS-123
Description: SANGER: Inhibition of human LS-123 cell growth in a cell viability assay.

[9] = system: HH; type: functional, cell-based, Homo sapiens; details: Homo sapiens, HH
Description: SANGER: Inhibition of human HH cell growth in a cell viability assay.

[10] = system: GAK; type: functional, cell-based, Homo sapiens; details: Homo sapiens, GAK;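 note: cell growth inhibition read out by a cell viability assay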
Description: SANGER: Inhibition of human GAK cell growth in a cell viability assay.

[11] = system: A388; type: functional, cell-based, Homo sapiens; details: Homo sapiens, A388;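 note: growth inhibition of human A388 cells, read out with a cell viability assay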
Description: SANGER: Inhibition of human A388 cell growth in a cell viability assay.

[12] = system: D-392MG; type: functional, cell-based, Homo sapiens; details: Homo sapiens, D-392MG
[13] = system: COLO-684; type: functional, cell-based, Homo sapiens; details: Homo sapiens, COLO-684
Description: SANGER: Inhibition of human COLO-684 cell growth in a cell viability assay.

[14] = system: NCI-H720; type: functional, cell-based, Homo sapiens; details: Homo sapiens, NCI-H720;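 note: growth inhibition of human NCI-H720 cells determined by a cell viability assay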
Description: SANGER: Inhibition of human NCI-H720 cell growth in a cell viability assay.

[15] = system: Calu-6; type: functional, cell-based, Homo sapiens; details: Homo sapiens, Calu-6;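 note: growth of human Calu-6 cells, read out by a cell viability assay, IC50 marking inhibition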
Description: SANGER: Inhibition of human Calu-6 cell growth in a cell viability assay.

[16] = system: EW-11; type: functional, cell-based, Homo sapiens; details: Homo sapiens, EW-11;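 note: growth inhibition of human EW-11 cells, measured with a cell viability assay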
Description: SANGER: Inhibition of human EW-11 cell growth in a cell viability assay.

[17] = system: COLO-320-HSR; type: functional, cell-based, Homo sapiens; details: Homo sapiens, COLO-320-HSR;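 note: growth inhibition of COLO-320-HSR cells, determined with a cell viability assay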
Description: SANGER: Inhibition of human COLO-320-HSR cell growth in a cell viability assay.

[18] = system: D283 Med; type: functional, cell-based, Homo sapiens; details: Homo sapiens, D283 Med
Description: SANGER: Inhibition of human D-283MED cell growth in a cell viability assay.

[19] = system: EOL1; type: functional, cell-based, Homo sapiens; details: Homo sapiens, EOL1;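 note: growth inhibition of EoL-1 cells, read out by a cell viability assay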
Description: SANGER: Inhibition of human EoL-1-cell cell growth in a cell viability assay.

[20] = system: EW-16; type: functional, cell-based, Homo sapiens; details: Homo sapiens, EW-16;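 note: growth inhibition of human EW-16 cells, read out as cell viability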
Description: SANGER: Inhibition of human EW-16 cell growth in a cell viability assay.

[21] = system: LB771-HNC; type: functional, cell-based, Homo sapiens; details: Homo sapiens, LB771-HNC;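 note: growth inhibition of LB771-HNC human cells, read out with a cell viability assay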
Description: SANGER: Inhibition of human LB771-HNC cell growth in a cell viability assay.

[22] = system: LOX IMVI; type: functional, cell-based, Homo sapiens; details: Homo sapiens, LOX IMVI
Description: SANGER: Inhibition of human LOXIMVI cell growth in a cell viability assay.

[23] = system: HDLM-2; type: functional, cell-based, Homo sapiens; details: Homo sapiens, HDLM-2;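 note: cell viability assay measuring suppression of HDLM-2 proliferation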
Description: SANGER: Inhibition of human HDLM-2 cell growth in a cell viability assay.

[24] = system: NCI-H1299; type: functional, cell-based, Homo sapiens; details: Homo sapiens, NCI-H1299;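 note: growth inhibition of human NCI-H1299 cells, read out by a cell viability assay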
Description: SANGER: Inhibition of human NCI-H1299 cell growth in a cell viability assay.

[25] = system: BB30-HNC; type: functional, cell-based, Homo sapiens; details: Homo sapiens, BB30-HNC;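 note: growth inhibition of the cultured cell line, read out by a cell viability assay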
Description: SANGER: Inhibition of human BB30-HNC cell growth in a cell viability assay.

[26] = system: SHP77; type: functional, cell-based, Homo sapiens, SHP-77; details: Homo sapiens, SHP77;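 note: growth inhibition of human SHP-77 cells measured by a cell viability assay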
Description: SANGER: Inhibition of human SHP-77 cell growth in a cell viability assay.

[27] = system: LAN-6; type: functional, cell-based, Homo sapiens; details: Homo sapiens, LAN-6;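 note: growth inhibition of LAN-6 cells, determined with a cell viability assay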
Description: SANGER: Inhibition of human LAN-6 cell growth in a cell viability assay.

[28] = system: MZ7-mel; type: functional, cell-based, Homo sapiens; details: Homo sapiens, MZ7-mel;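 note: growth inhibition of human MZ7-mel cells, measured by a cell viability assay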
Description: SANGER: Inhibition of human MZ7-mel cell growth in a cell viability assay.

[29] = system: KURAMOCHI; type: functional, cell-based, Homo sapiens; details: Homo sapiens, KURAMOCHI;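 note: growth inhibition of KURAMOCHI cells, read out with a cell viability assay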
Description: SANGER: Inhibition of human KURAMOCHI cell growth in a cell viability assay.

[30] = system: KM-H2; type: functional, cell-based, Homo sapiens; details: Homo sapiens, KM-H2;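 note: growth inhibition of KM-H2 cells, read out by a cell viability assay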
Description: SANGER: Inhibition of human KM-H2 cell growth in a cell viability assay.

[31] = system: SW982; type: functional, cell-based, Homo sapiens; details: Homo sapiens, SW982;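 note: growth inhibition of SW982 cells, read out with a cell viability assay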
Description: SANGER: Inhibition of human SW982 cell growth in a cell viability assay.

[32] = system: COLO-829; type: functional, cell-based, Homo sapiens; details: Homo sapiens, COLO-829
Description: SANGER: Inhibition of human COLO-829 cell growth in a cell viability assay.

[33] = system: BV-173; type: functional, cell-based, Homo sapiens; details: Homo sapiens, BV-173
Description: SANGER: Inhibition of human BV-173 cell growth in a cell viability assay.

[34] = system: HCC 2998; type: functional, cell-based, Homo sapiens; details: Homo sapiens, HCC 2998;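 note: growth inhibition of human HCC2998 cells, measured with a cell viability read-out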
Description: SANGER: Inhibition of human HCC2998 cell growth in a cell viability assay.

[35] = system: DB; type: functional, cell-based, Homo sapiens; details: Homo sapiens, DB
Description: SANGER: Inhibition of human DB cell growth in a cell viability assay.

[36] = system: TE-12; type: functional, cell-based, Homo sapiens; details: Homo sapiens, TE-12;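 note: growth inhibition of TE-12 cells, read out by a cell viability assay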
Description: SANGER: Inhibition of human TE-12 cell growth in a cell viability assay.

[37] = system: KNS-42; type: functional, cell-based, Homo sapiens; details: Homo sapiens, KNS-42;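 note: growth inhibition of KNS-42 cells, read out with a cell viability assay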
Description: SANGER: Inhibition of human KNS-42 cell growth in a cell viability assay.

[38] = system: CGTH-W-1; type: functional, cell-based, Homo sapiens; details: Homo sapiens, CGTH-W-1;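 note: growth inhibition of human CGTH-W-1 cells measured by cell viability assay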
Description: SANGER: Inhibition of human CGTH-W-1 cell growth in a cell viability assay.

[39] = system: NB17; type: functional, cell-based, Homo sapiens; details: Homo sapiens, NB17;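 note: growth inhibition of NB17 cells, read out with a cell viability assay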
Description: SANGER: Inhibition of human NB17 cell growth in a cell viability assay.

[40] = system: COLO-800; type: functional, cell-based, Homo sapiens; details: Homo sapiens, COLO-800;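 note: growth inhibition of COLO-800 cells, read out with a cell viability assay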
Description: SANGER: Inhibition of human COLO-800 cell growth in a cell viability assay.

[41] = system: KS-1; type: functional, cell-based, Homo sapiens; details: Homo sapiens, KS-1;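 note: growth inhibition of KS-1 cells, read out with a cell viability assay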
Description: SANGER: Inhibition of human KS-1 cell growth in a cell viability assay.

[42] = system: no-11; type: functional, cell-based, Homo sapiens; details: Homo sapiens;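 note: growth inhibition of human NO-11 cells, read out with a cell viability assay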
Description: SANGER: Inhibition of human no-11 cell growth in a cell viability assay.

[43] = system: COLO-668; type: functional, cell-based, Homo sapiens; details: Homo sapiens, COLO-668
Description: SANGER: Inhibition of human COLO-668 cell growth in a cell viability assay.

[44] = system: HL-60; type: functional, cell-based, Homo sapiens; details: Homo sapiens, HL-60;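 note: growth inhibition of human HL-60 cells, read out with a cell viability assay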
Description: SANGER: Inhibition of human HL-60 cell growth in a cell viability assay.

[45] = system: TE-8; type: functional, cell-based, Homo sapiens; details: Homo sapiens, TE-8;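 note: growth inhibition of TE-8 cells, measured with a cell viability readout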
Description: SANGER: Inhibition of human TE-8 cell growth in a cell viability assay.

[46] = system: ALL-PO; type: functional, cell-based, Homo sapiens; details: Homo sapiens, ALL-PO;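 note: growth inhibition of ALL-PO cells, read out by a cell viability assay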
Description: SANGER: Inhibition of human ALL-PO cell growth in a cell viability assay.

[47] = system: JAR; type: functional, cell-based, Homo sapiens; details: Homo sapiens, JAR;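 note: growth inhibition of human JAR cells determined with a cell viability assay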
Description: SANGER: Inhibition of human JAR cell growth in a cell viability assay.

[48] = system: NCI-H1395; type: functional, cell-based, Homo sapiens; details: Homo sapiens, NCI-H1395;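 note: cell viability assay read-out quantifying reduced proliferation of human NCI-H1395 cells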
Description: SANGER: Inhibition of human NCI-H1395 cell growth in a cell viability assay.

## Cc1cn(-c2cc(NC(=O)c3ccc(C)c(Nc4nccc(-c5cccnc5)n4)c3)cc(C(F)(F)F)c2)cn1 [NILOTINIB]
[1]
  IC50: > 2000 nM
[2]
  IC50: > 2000 nM
[3]
  IC50: > 2000 nM
[4]
  IC50: > 2000 nM
[5]
  IC50: > 2000 nM
[6]
  IC50: > 2000 nM
[7]
  IC50: > 2000 nM
[8]
  IC50: > 2000 nM
[9]
  IC50: > 2000 nM
[10]
  IC50: > 2000 nM
[11]
  IC50: > 2000 nM
[12]
  IC50: > 2000 nM
[13]
  IC50: > 2000 nM
[14]
  IC50: > 2000 nM
[15]
  IC50: > 2000 nM
[16]
  IC50: > 2000 nM
[17]
  IC50: > 2000 nM
[18]
  IC50: > 2000 nM
[19]
  IC50: < 7.81 nM
[20]
  IC50: > 2000 nM
[21]
  IC50: > 2000 nM
[22]
  IC50: > 2000 nM
[23]
  IC50: > 2 µM
[24]
  IC50: > 2000 nM
[25]
  IC50: > 2000 nM
[26]
  IC50: > 2000 nM
[27]
  IC50: > 2000 nM
[28]
  IC50: > 2000 nM
[29]
  IC50: > 2000 nM
[30]
  IC50: > 2000 nM
[31]
  IC50: > 2000 nM
[32]
  IC50: > 2000 nM
[33]
  IC50: 10.9 nM
[34]
  IC50: > 2000 nM
[35]
  IC50: > 2000 nM
[36]
  IC50: > 2000 nM
[37]
  IC50: > 2000 nM
[38]
  IC50: 649 nM
[39]
  IC50: > 2000 nM
[40]
  IC50: > 2000 nM
[41]
  IC50: > 2000 nM
[42]
  IC50: > 2000 nM
[43]
  IC50: > 2000 nM
[44]
  IC50: > 2000 nM
[45]
  IC50: > 2000 nM
[46]
  IC50: > 2000 nM
[47]
  IC50: > 2000 nM
[48]
  IC50: > 2000 nM

## CO[C@H]1C[C@@H]2CC[C@@H](C)[C@@](O)(O2)C(=O)C(=O)N2CCCC[C@H]2C(=O)O[C@H]([C@H](C)C[C@@H]2CC[C@@H](OC(=O)C(C)(CO)CO)[C@H](OC)C2)CC(=O)[C@H](C)/C=C(\C)[C@@H](O)[C@@H](OC)C(=O)[C@H](C)C[C@H](C)/C=C/C=C/C=C/1C [TEMSIROLIMUS]
[1]
  IC50: > 200 nM
[2]
  IC50: > 200 nM
[3]
  IC50: > 200 nM
[4]
  IC50: 5.27 nM
[5]
  IC50: > 200 nM
[6]
  IC50: > 200 nM
[7]
  IC50: > 200 nM
[8]
  IC50: > 200 nM
[9]
  IC50: 0.664 nM
[10]
  IC50: > 200 nM
[11]
  IC50: > 200 nM
[12]
  IC50: > 200 nM
[13]
  IC50: 13.3 nM
[14]
  IC50: 9.62 nM
[15]
  IC50: > 200 nM
[16]
  IC50: 15.6 nM
[17]
  IC50: > 200 nM
[18]
  IC50: > 200 nM
[19]
  IC50: 16.1 nM
[20]
  IC50: 28.6 nM
[21]
  IC50: > 200 nM
[22]
  IC50: 120 nM
[23]
  IC50: > 0.2 µM
[24]
  IC50: 186 nM
[25]
  IC50: > 200 nM
[26]
  IC50: > 200 nM
[27]
  IC50: > 200 nM
[28]
  IC50: 161 nM
[29]
  IC50: > 200 nM
[30]
  IC50: > 200 nM
[31]
  IC50: > 200 nM
[32]
  IC50: > 200 nM
[33]
  IC50: 43.8 nM
[34]
  IC50: > 200 nM
[35]
  IC50: 3.12 nM
[36]
  IC50: > 200 nM
[37]
  IC50: > 200 nM
[38]
  IC50: 5.75 nM
[39]
  IC50: > 200 nM
[40]
  IC50: 129 nM
[41]
  IC50: 63.5 nM
[42]
  IC50: > 200 nM
[43]
  IC50: > 200 nM
[44]
  IC50: > 200 nM
[45]
  IC50: > 200 nM
[46]
  IC50: > 200 nM
[47]
  IC50: > 200 nM
[48]
  IC50: > 200 nM

## CS(=O)(=O)c1ccc(C(=O)Nc2ccc(Cl)c(-c3ccccn3)c2)c(Cl)c1 [VISMODEGIB]
[1]
  IC50: > 10000 nM
[2]
  IC50: > 10000 nM
[3]
  IC50: > 10000 nM
[4]
  IC50: > 10000 nM
[5]
  IC50: > 10000 nM
[6]
  IC50: > 10000 nM
[7]
  IC50: > 10000 nM
[8]
  IC50: > 10000 nM
[9]
  IC50: > 10000 nM
[10]
  IC50: > 10000 nM
[11]
  IC50: > 10000 nM
[12]
  IC50: > 10000 nM
[13]
  IC50: > 10000 nM
[15]
  IC50: > 10000 nM
[16]
  IC50: > 10000 nM
[17]
  IC50: > 10000 nM
[18]
  IC50: > 10000 nM
[20]
  IC50: > 10000 nM
[21]
  IC50: > 10000 nM
[22]
  IC50: > 10000 nM
[23]
  IC50: 8.05 µM
[24]
  IC50: > 10000 nM
[25]
  IC50: > 10000 nM
[26]
  IC50: > 10000 nM
[27]
  IC50: > 10000 nM
[28]
  IC50: > 10000 nM
[29]
  IC50: > 10000 nM
[30]
  IC50: > 10000 nM
[31]
  IC50: > 10000 nM
[32]
  IC50: > 10000 nM
[33]
  IC50: > 10000 nM
[34]
  IC50: > 10000 nM
[35]
  IC50: > 10000 nM
[36]
  IC50: > 10000 nM
[37]
  IC50: > 10000 nM
[38]
  IC50: > 10000 nM
[39]
  IC50: > 10000 nM
[40]
  IC50: > 10000 nM
[41]
  IC50: > 10000 nM
[42]
  IC50: > 10000 nM
[43]
  IC50: > 10000 nM
[44]
  IC50: > 10000 nM
[45]
  IC50: > 10000 nM
[46]
  IC50: > 10000 nM
[47]
  IC50: > 10000 nM
[48]
  IC50: > 10000 nM
